Reference: patent US11384358B2, “Method of regulating gene expression in a cell” (President and Fellows of Harvard College, priority 2017, dated 2022)

What was measured:
Format in all cases: cell-based
[1] = test system: TetR regulon paired with slpA-tetO variant 2; assay: aTc induction of fluorescent reporter, TetR regulon (L. plantarum promoter) paired with slpA-tetO variant 2; conditions: L. rhamnosus GG; 0.3125-10 ng/mL aTc; early exponential, mid-exponential and stationary phase; FIG. 1
Description: To evaluate the functionality of the aTc induction system described herein in lactic acid bacteria, the TetR regulon described herein is driven by a L. plantarum promoter paired with slpA-tetO variant 2 (current SEQ IDs 1 and 2), into L. rhamnosus GG via electroporation with a high copy plasmid. Sequence verified colonies, as well as colonies harboring a negative control plasmid with no fluorescence reporter, were then picked in triplicate, and used to inoculate liquid cultures that were grown overnight. These overnight cultures were then sub-cultured 1/100 into fresh media, in duplicate—one culture containing 10 ng/mL aTc, the other containing no inducing agent. The culture with inducing agent, was then serially diluted by 50%, 5 times (yielding cultures with 5, 2.5, 1.25, 0.625, and 0.3125 ng/mL of aTc, in addition to the original 10 ng/mL culture). These cultures were then grown to an optical density of 0.2 (to capture lag phase behavior), 0.6 (log phase), and 1.0 (stationary phase), as measured by an optical cell density meter. At each optical density, the fluorescence of all cultures and replicates were measured in absolute units in a fluorimeter. Relative fluorescence units were then computed as a fold change value over the measured fluorescence of the negative control cell cultures that were known to not express fluorescence protein.

[2] = test system: aTc-inducible expression cassette encoding J3-VHH secretion; assay: aTc-induced secretion of HisTagged J3-VHH nanobody, protein gel of purified culture supernatant; conditions: L. gasseri with inducible cassette (SEQ ID NO: 2); 500 ng/mL aTc added at optical density 0.4; FIG. 17
Source text: According to one aspect, an inducible expression system is used prevent expression during bacterial culture and clone isolation. According to one aspect, expression is controlled and kept off during bacterial culture and clone isolation to avoid or lower or reduce or inhibit secretion-induced toxicity. According to one aspect, the level of a HisTagged, anti-HIV (gp120) camelid nanobody (J3-VHH) purified from culture supernatant, when secretion of protein was driven by an inducible system (SEQ ID NO: 2) was compared to a system using an uncontrolled, constitutive slpA. Cells (in this case, L. gasseri) without an expression cassette (negative control with no protein expected), an aTc-inducible expression cassette encoding J3-VHH secretion, and an equivalent, but constitutive expression cassette, were grown in culture to an optical density of 0.4 (the start of the exponential growth phase, during which time cellular protein production capacity is maximal), and split into two equal volumes—500 ng/mL of aTc was added to one, while the other received no aTc (as an internal negative control to verify functional induction).

L. jensenii = assay: susceptibility of Lactobacillus strains to tetracycline (growth inhibition)
Description: (§1) An expression system that is inducible by tetracycline in Lactobacilli is described as follows. […] A BLAST analysis of the TetR protein sequence as well as the TetA tetracycline efflux pump that drives resistance was performed, across all available Lactobacillus proteomes and potential homologs in L. lactis, and L. plantarum were identified, because they carry a transferrable plasmid harboring tetM and tetS genes.

L. rhamnosus GG [3] = assay: as above
Description: as §1

L. gasseri = assay: as above
L. crispatus = assay: as above
[4] = relative expression strength of promoters by fluorescence (FIG. 12)
L. rhamnosus GG [5] = assay: promoter variants driving fluorescent reporter in plasmid with no TetR, L. rhamnosus GG
Description: FIG. 11 depicts minimum free energy mRNA structural folding predictions. Each of these variants was then tested in a plasmid with no TetR (meaning the inserted promoters are not repressed, and should be constitutively active), driving a fluorescent reporter. […] Subsequently, this test was replicated in L. rhamnosus GG. […] Therefore, only variant 2 was selected for testing in the presence of TetR. […] See McCracken et al. J Bacteriol 181(20):6569-6572 (1999).

[6] = test system: TetR regulon paired with slpA-tetO variant 2; assay: aTc induction of fluorescent reporter in L. gasseri; conditions: similar experimental conditions, FIG. 15
L. rhamnosus GG [7] = assay: leakage and induction of aTc-inducible slpA promoter variant (FIG. 16)
Source text: An exemplary aTc-inducible slpA promoter variant is provided in SEQ ID NO:15 which includes the alterations above resulting in a combined, maximally repressive variant. In one embodiment, a promoter sequence has at least 85% homology, at least 90% homology, at least 95% homology, at least 97% homology, at least 98% homology or at least 99% homology to SEQ ID NO:15. All of the described alterations work in concert to achieve an inducible system that has essentially undetectable levels of leakage in all phases of growth.

With Cc1c2c(c(O)c3c(O)cccc13)C(=O)[C@]1(O)C(O)=C(C(N)=O)C(=O)[C@@H](N(C)C)[C@@H]1C2 [aTc, anhydrous tetracycline] as the molecule, how does the “repression and expression of a fluorescent protein in the absence and presence of aTc” value [1] read?
The value was “reliable repression and expression of a fluorescent protein”.

And the “secretion of J3-VHH protein into the supernatant” value [2]?
The value was “secreted any protein into the supernatant”.

Which “tetracycline concentration at which growth is inhibited” value (L. jensenii) does the source give for CN(C)[C@@H]1C(O)=C(C(N)=O)C(=O)[C@@]2(O)C(O)=C3C(=O)c4c(O)cccc4[C@@](C)(O)[C@H]3C[C@@H]12 [tetracycline] here?
The value was ≤ 2 mg/mL.

And the “tetracycline concentration at which growth is inhibited” value (L. rhamnosus GG [3])?
The value was ≤ 2 mg/mL.

What about the “tetracycline concentration at which growth is inhibited” value (L. gasseri) of the same molecule?
Its value is ≤ 2 mg/mL.

And the “tetracycline concentration at which growth is inhibited” value (L. crispatus)?
Its value is ≤ 2 mg/mL.

B1: promoter for the ribosomal RNA 3-a from L. plantarum: L. plantarum ribosomal RNA promoter 3-a, used to drive TetR (SEQ ID NO: 1) (nucleic acid)
DNA: TTATAAAAAGATGTTGACAGCTTGTTCTGATGATGATAAACTTTAATAGTTGCGAGAGAAAGAGGAGAAATACTAGATGATGTCTAGATTAGATAAAAGTAAAGTGATTAACAGCGCATTAGAGCTGCTTAATGAGGTCGGAATCGAAGGTTTAACAACCCGTAAACTCGCCCAGAAGCTAGGTGTAGAGCAGCCTACATTGTATTGGCATGTAAAAAATAAGCGGGCTTTGCTCGACGCCTTAGCCATTGAGATGTTAGATAGGCACCATACTCACTTTTGCCCTTTAGAAGGGGAAAGCTGGCAAGATTTTTTACGTAATAACGCTAAAAGTTTTAGATGTGCTTTACTAAGTCATCGCGATGGAGCAAAAGTACATTTAGGTACACGGCCTACAGAAAAACAGTATGAAACTCTCGAAAATCAATTAGCCTTTTTATGCCAACAAGGTTTTTCACTAGAGAATGCATTATATGCACTCAGCGCTGTGGGGCATTTTACTTTAGGTTGCGTATTGGAAGATCAAGAGCATCAAGTCGCTAAAGAAGAAAGGGAAACACCTACTACTGATAGTATGCCGCCATTATTACGACAAGCTATCGAATTATTTGATCACCAAGGTGCAGAGCCAGCCTTCTTATTCGGCCTTGAATTGATCATATGCGGATTAGAAAAACAACTTAAATGTGAAAGTGGGTCTTAA
Which “expression strength relative to slpA” value [4] does the source give for B1 here?
Its value is 5 fold weaker than that of slpA.

B2: Variant 2: slpA promoter with two tetO boxes after the transcriptional start site (nucleic acid)
DNA: TGCTTGTGGGGGTAAGCGGTAGGTGAAATATTACAAATAGTATTTTTCGGTCATTTTAACTTGCTATTTCTTGAAGAGGTTAGTACAATATGAATCGTGGCCCTATCAGTGATAGAGATCAGGCGCCCTATCAGTGATAGAGATGATTCTTCAGCAAGACTACTACCTCATGAGAGTTATAGACTCATGGATCTTGCTTTGAAGGGTTTTGTACATTATAGGCTCCTATCACATGCTGAACCTATGGCCTATTACATTTTTTTATATTTCAAGGAGGAAAAGACCAC
Which “expression versus wild-type promoter” value (L. rhamnosus GG [5]) does the source give for B2 here?
Its value is 3 fold-less than the wild-type promoter.

B3: TetR-ClpC-slpA: hybrid regulon: L. fermentum BR11 ClpC promoter fused to slpA 5' untranslated region driving TetR (nucleic acid)
DNA: CTTAAAATATAGTCATAGAATTAGGGCGTCGGTTTTAAAAGTGTGGTAAAATAATGGTCAAGATTAGTGGTAAGTAATAGGACGTGCTTCAGGCGTGTTGCCTGTACGCATGCTGATTCTTCAGCAAGACTACTACCTCATGAGAGTTATAGACTCATGGTATAGGCTCCTATCACATGCTGAACCTATGGCCTATTACATTTTTTTATATTTCAAGGAGGAAAAGACCACATGATGTCACGCTTGGATAAATCAAAAGTTATTAATTCAGCATTGGAATTGTTGAATGAAGTTGGCATTGAAGGCTTGACCACCCGCAAATTGGCACAAAAATTGGGCGTTGAACAACCAACCTTGTATTGGCATGTTAAAAATAAACGCGCATTGTTGGATGCATTGGCAATTGAAATGTTGGATCGCCATCATACCCATTTTTGCCCATTGGAAGGCGAATCATGGCAAGATTTTTTGCGCAATAATGCAAAATCATTTCGCTGCGCATTGTTGTCACATCGCGATGGCGCAAAAGTTCATTTGGGCACCCGCCCAACCGAAAAACAATATGAAACCTTGGAAAATCAATTGGCATTTTTGTGCCAACAAGGCTTTTCATTGGAAAATGCATTGTATGCATTGTCAGCAGTTGGCCATTTTACCTTGGGCTGCGTTTTGGAAGATCAAGAACATCAAGTTGCAAAAGAAGAACGCGAAACCCCAACCACCGATTCAATGCCACCATTGTTGCGCCAAGCAATTGAATTGTTTGATCATCAAGGCGCAGAACCAGCATTTTTGTTTGGCTTGGAATTGATTATTTGCGGCTTGGAAAAACAATTGAAATGCGAATCAGGCTCATAA
For B3, which “function of hybrid promoter driving TetR” value [6] is on record?
The value was “functional”.

B4: SEQ ID NO:15: aTc-inducible slpA promoter variant combining all alterations, maximally repressive (nucleic acid)
DNA: TGCTTGTGGGGGTAAGCGGTAGGTGAAATATTACAAATAGTATTTTTCGGTCATTTTAACTTGCTATTTCTTGAAGAGGTTAGTACAATATGAATCGTGGTCCCTATCAGTGATAGAGATTGACATCCCTATCAGTGATAGAGATATTCTTCAGCAAGACTACTACCTCATGAGAGTTATAGACTCATGGATCTTGCTTTGAAGGGTTTTGTACATTATAGGCTCCTATCACATGCTGAACCTATGGCCTATTACATTTTTTTATATTTCAAGGAGGAAAAGACCAC
Which results are given for B4?
reduction in maximum inducible expression (L. rhamnosus GG [7]; FIG. 16): ~10 ×; basal expression in the absence of aTc (L. rhamnosus GG [7]; stationary phase for 0, 2.5, 7.5 and 17.5 hours): no basal expression was detected
